Reference: EP4631502A1 (Nicoventures Trading Limited, priority 2024, dated 2025)

Legend:
[1] = target: T1, Human adenosine A1 receptors (Homo sapiens, UniProt P30542); test: biochemical; conditions: [3H]-DPCPX 1 nM, 60 min, 27°C
T1 sequence (P30542 1-326): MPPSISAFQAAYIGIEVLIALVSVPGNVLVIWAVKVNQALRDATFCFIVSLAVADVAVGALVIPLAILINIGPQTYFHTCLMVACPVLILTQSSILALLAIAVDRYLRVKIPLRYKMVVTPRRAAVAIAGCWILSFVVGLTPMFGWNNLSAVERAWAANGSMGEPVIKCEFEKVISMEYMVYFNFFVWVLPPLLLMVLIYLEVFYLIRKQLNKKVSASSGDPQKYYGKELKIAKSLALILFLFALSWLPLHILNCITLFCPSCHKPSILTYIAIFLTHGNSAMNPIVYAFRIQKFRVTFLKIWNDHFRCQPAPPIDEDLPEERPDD
Procedure: Binding experiments were performed according to the data sheet provided by the supplier of the receptor (Perkin Elmer) with modifications:
Approximately 2.4-3 µg protein-containing membranes were incubated for 60 min in a total volume of 100 µL at 27°C: assay buffer:
Test compound data are presented as specific radioligand binding to the receptor.
(§1) In case of ill-defined curves or algorithm-generated minima below the defined non-specific binding, the IC50 value was determined by graphical extrapolation.

Adenosine A1 receptor = Adenosine A1 receptor (Rattus norvegicus, UniProt P25099); conditions: read-out: IC50 Mean (footnote: Literature value determined in rat), Ji et al., J Med. Chem. 39, 781-788 (1996); cited from earlier work
Sequence of Adenosine A1 receptor (P25099 whole entry): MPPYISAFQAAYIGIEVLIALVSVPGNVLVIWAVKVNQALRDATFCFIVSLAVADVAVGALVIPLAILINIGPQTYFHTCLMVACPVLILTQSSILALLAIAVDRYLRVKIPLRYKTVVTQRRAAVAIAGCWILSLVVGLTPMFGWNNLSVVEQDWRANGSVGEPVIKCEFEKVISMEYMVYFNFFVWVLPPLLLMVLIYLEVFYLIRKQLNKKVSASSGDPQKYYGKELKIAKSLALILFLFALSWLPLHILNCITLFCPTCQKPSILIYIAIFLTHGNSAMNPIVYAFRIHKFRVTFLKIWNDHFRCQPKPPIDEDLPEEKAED

[2] = target: human adenosine A2A receptors (Homo sapiens, UniProt P29274); test: Adenosine A2A receptor radioligand binding assay ([125I]-ZM241385 competition, membranes of HEK293 cells)
Sequence of human adenosine A2A receptors (P29274 whole entry): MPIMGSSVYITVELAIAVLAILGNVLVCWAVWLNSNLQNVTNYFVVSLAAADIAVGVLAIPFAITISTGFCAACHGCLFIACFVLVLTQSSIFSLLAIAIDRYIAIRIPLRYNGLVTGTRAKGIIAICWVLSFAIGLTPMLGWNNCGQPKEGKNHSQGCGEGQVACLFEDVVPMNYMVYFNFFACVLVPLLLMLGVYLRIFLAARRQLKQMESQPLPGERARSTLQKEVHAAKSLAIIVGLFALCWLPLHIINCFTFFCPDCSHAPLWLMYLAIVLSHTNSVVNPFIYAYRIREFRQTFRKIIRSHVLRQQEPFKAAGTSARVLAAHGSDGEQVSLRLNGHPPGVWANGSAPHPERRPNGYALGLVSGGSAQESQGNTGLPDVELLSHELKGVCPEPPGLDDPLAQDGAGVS
Procedure: Approximately 0.4-0.9 µg protein-containing membranes were incubated for 60 min in a total volume of 100 µL at 37°C. assay buffer:
Test compound data are presented as specific radioligand binding to the receptor. Specific binding is defined as the difference between the total binding and the non-specific binding determined in the presence of the reference compound as detailed in the previous sections.
as §1

SMILES: COc1cc2oc(-c3ccc(O)cc3)cc(=O)c2c(O)c1OC [Cirsimaritin]
- IC50 ([1]; IC50 1.M, first measurement): 617000 nM
- IC50 ([1]; IC50 2.M, second measurement): 122000 nM
- IC50 (Adenosine A1 receptor): 1200 nM
- IC50 ([2]; IC50 1.M, first measurement, [125I]-ZM241385 20000 cpm, 60 min, 37°C): 1300 nM
- IC50 ([2]; IC50 2.M, second measurement, [125I]-ZM241385 20000 cpm, 60 min, 37°C): 2100 nM
- IC50 ([2]; IC50 Mean, mean of 1.M and 2.M): 1700 nM
